What was measured:
GARFT = details: cited from earlier work
6C3HED lymphosarcoma = test: In vivo antitumor activity, 6C3HED lymphosarcoma; parameters: species or system C3H/He female mice; details: intraperitoneal, once daily for nine days; for % Inhibition: tumor mass day 11
Method: (§1) On day zero, 2 mm^2 trocar fragments of 6C3HED lymphosarcoma were implanted subcutaneously in the axillary region into groups of six C3H/He female mice. Starting on day 1, the test compound was administered intraperitoneally in 40% Encapsin given once daily for nine days. Control animals received identical treatment without test compound. The percentage inhibition given in Table 5 below was calculated by comparing the mass of the control tumors (receiving diluent only) on day 11 to those of animals receiving test compound.

[1] = tested on: C3H/BA mammary adenocarcinoma; test: In vivo antitumor activity, C3H/BA mammary adenocarcinoma; parameters: species or system C3H/He female mice; details: intraperitoneal, once daily for nine days, tumor mass day 14
Method: as §1, with “C3H/BA mammary adenocarcinoma” for “6C3HED lymphosarcoma”, “percentage of” for “percentage”, “inhibition” for “inhibition given in Table 5 below”, “14” for “11”

L1210 = test: In vitro growth inhibition, L1210, MTT, Example 2; type: cell-based; details: Mus musculus, Continuous (72-hour) exposure, mean IC50, read-out: IC50 Cell Culture L1210
Method: All cultures were maintained at 37° C., 5% air-CO2 in a humidified incubator.
Stock solutions of the inhibitors were prepared in 10 mM sodium bicarbonate in water and stored in 1 ml aliquots at -20° C. for cell culture experiments. Cell growth inhibition was measured by a modification of the method of Mosmann, J. Immunol. Methods 65 (1983), 55-63.
Mid-log phase cells of each cell line were diluted to 18,500 cells/ml in fresh RPMI growth medium (Mediatech, Washington, DC) supplemented with dialyzed fetal calf serum (Hyclone Laboratories Inc., Logan, Utah) and then aliquotted into columns 2 through 12 of 96-well microtiter plates. Column 1 was filled with the same volume ([…]) of fresh medium, without cells, for use as a blank. The plates were then placed in a 37° C., 5% air-CO2 incubator. After 1 to 4 hours, plates were removed from the incubator followed by addition of Compound (21) at 10×final concentration, […] in binary dilutions, to columns 12 to 4. […] The extent of metabolized MTT was measured spectrophotometrically at 540 nm on a Molecular Devices Vmax™ kinetic microplate reader. The concentration of drug required to reduce cell growth by 50% as measured by MTT metabolism was determined by interpolation between the O.D. (minus blank) immediately above and below 50% of control O.D. (minus blank). […]

Structure (SMILES) | GARFT inhibition (GARFT) | % Inhibition (6C3HED lymphosarcoma; 12.5 mg/kg) | % Inhibition (6C3HED lymphosarcoma; 25 mg/kg) | % Inhibition (given as toxic) (6C3HED lymphosarcoma; 50 mg/kg, day 11) | % Inhibition ([1]; 5 mg/kg) | % Inhibition ([1]; 10 mg/kg) | % Inhibition ([1]; 20 mg/kg) | IC50 (L1210)
Nc1nc2c(c(=O)[nH]1)CC(CCc1ccc(C(=O)N[C@@H](CCC(=O)O)C(=O)O)cc1)CN2 (some centres unmarked) [5,10-dideazatetrahydrofolic acid] | specific tight binding inhibitor of GARFT |  |  |  |  |  |  | 
Nc1nc2c(c(=O)[nH]1)SC(CCc1ccc(C(=O)N[C@@H](CCC(=O)O)C(=O)O)s1)CN2 (stereo partly drawn) [Compound 21, 4-[2-(2-Amino-4-oxo-4,6,7,8-tetrahydro-3H-pyrimido[5,4-6][1,4]thiazin-6-yl)-ethyl]-2,5-thienoylamino-L-glutamic acid] |  | 100% | 100% | toxic | 16% | 84% | 100% | 16 nM

Source: patent US5610319A, “Compound useful as antiproliferative agents and GARFT inhibitors” (Agouron Pharmaceuticals, Inc., priority 1995, dated 1997)
